Earlier results, collected in patent US20230165842A1, “NEW USES” (priority 2020, published 2023).
Where two headings read alike, the source gives them in different places.

Legend:
[1] = tested on: hospitalised Covid-19 patients
[2] = tested on: SARS-CoV-2; settings: Vero E6
[3] = tested on: SARS-CoV-2; settings: Calu-3
[4] = tested on: Vero E6
[5] = tested on: Calu-3
[6] = tested on: COVID-19-induced pulmonary fibrosis
[7] = tested on: patients hospitalized with COVID-19; settings: With Calcifediol Treatment (n = 50)
[8] = tested on: SARS-CoV-2; parameters: Reducing Viral propagation: concentration or dose not given beside the values; settings: Vero E6; MOI=0.0005
[9] = tested on: SARS-CoV-2; settings: Vero cells; 2 h pre-treatment; vs DMSO control; p<0.0001
[10] = tested on: SARS-CoV-2
[11] = tested on: dysgeusia in COVID positive patients
[12] = tested on: COVID-19 ARDS patients
[13] = tested on: COVID-19 cases; settings: conclusion for the named statins
[14] = tested on: OC43; settings: maximal across all concentrations
[15] = tested on: OC43
[16] = tested on: SARS-CoV-2; remark: listed apart in the source
[17] = tested on: SARS-CoV-2 Spike pseudotyped virus; settings: ACE2h HEK293T cells; Control = 1
[18] = tested on: SARS-CoV-2; settings: Vero E6; for IC50: 2 h pre-treatment, 24 h
[19] = tested on: SARS-CoV-2; settings: treated 24 hours prior to infection; read-out: IC50 in Calu-3
[20] = tested on: SARS-CoV-2; settings: Vero-E6; MOI 0.005
[21] = tested on: human coronavirus (HCoV)-229E; settings: MRC5 cells
[22] = tested on: SARS-CoV-2; settings: concentration dependent; data not shown
[23] = tested on: Covid positive patients
[24] = tested on: adults with confirmed SARS-CoV-2 infection
[25] = tested on: Vero E6 cells; settings: Vero E6
[26] = six weeks after initiation of therapy

Molecule: COc1cc(Nc2ncc(F)c(Nc3ccc4c(n3)N(COP(=O)(O)O)C(=O)C(C)(C)O4)n2)cc(OC)c1OC [Compound 35, fostamatinib]
- primary endpoint of safety ([1]; Phase II, oral twice-daily plus SOC for 14 days): met the primary endpoint of safety
- improvement in clinical status ([1]; by day 15 and 29): superior to placebo
- outcome of intubated patients on mechanical ventilation ([1]; two patients receiving drug): improved in seven days and were off the ventilator
- chances of occurrence of serious adverse events ([1]; vs placebo): halved
- number of days in the ICU ([1]; vs seven in the placebo group): three
- deaths ([1]; vs three deaths in the placebo arm): No deaths

Molecule: C[C@H]1[C@H](OC(=O)CCC(=O)O)O[C@@H]2O[C@@]3(C)CC[C@H]4[C@H](C)CC[C@@H]1[C@@]24OO3 [Compound 145, artesunate]
- IC50 [2]: 53.1 µM
- Selectivity Index (SI) [2]: >1.885
- IC50 [3]: 1.76 µM
- Selectivity Index (SI) [3]: >56.82
- CC50 [4]: > 100 µM
- CC50 [5]: > 100 µM

Molecule: COC(=O)c1ccc2c(c1)NC(=O)/C2=C(\Nc1ccc(N(C)C(=O)CN2CCN(C)CC2)cc1)c1ccccc1 [Compound 134, nintedanib]
- serum level of alanine aminotransferase (adverse event) ([6]; 300 mg/day oral, managed with reduction to 200 mg/day): became elevated
- Ground-glass opacities of the lung (CT) ([6]; FIG. 29-D): mildly attenuated without further progression of pulmonary fibrosis
- respiratory condition and exercise tolerance ([6]; after three months of rehabilitation with drug and tapering of prednisolone): improved
- other side effects ([6]; in vivo): No other side effects
- vital capacity [6, 26]: 1.27 L
- vital capacity per predicted [6, 26]: 61.7%

Molecule: C=C1CC[C@H](O)C/C1=C/C=C1\CCC[C@]2(C)[C@@H]([C@H](C)CCCC(C)(C)O)CC[C@@H]12 [Calcifediol, calcifediol]
- Not requiring ICU, n (%) [7]: 49 (98)
- Requiring ICU, n (%) [7]: 1 (2)

Molecule: O=C(Nc1ccc([N+](=O)[O-])cc1Cl)c1cc(Cl)ccc1O [Reference Compound 3, niclosamide]
- IC50 [8]: 17 µM
- Reducing Viral propagation [8]: >99%

Molecule: NC1(c2ccc(-c3nc4ccn5c(=O)[nH]nc5c4cc3-c3ccccc3)cc2)CCC1 [Compound 173, mk-2206]
- IC50 [8]: 0.09 µM
- Reducing Viral propagation [8]: 88%

Molecule: CCN(CCO)CCCC(C)Nc1ccnc2cc(Cl)ccc12 (centres unmarked) [Reference Compound 5, hydroxychloroquine]
- IC50 [2]: 1.07 µM
- Selectivity Index (SI) [2]: >93.55
- IC50 [3]: 103 µM
- Selectivity Index (SI) [3]: >0.972
- decrease in viral load [9]: 26.9 fold
- CC50 ([4]; Vero E6): > 100 µM
- CC50 ([5]; Calu-3): > 100 µM

Molecule: OCc1c[nH]c2ccccc12 [Compound 110, indole-3-carbinol]
- SARS-CoV-2-induced CPE ([10]; 16.67 and 5.56 μM): not affected
- reduced the SARS-CoV-2-induced CPE ([10]; Vero E6, 50 μM, 72 h post-infection, vs DMSO): about 60%
- virus yield reduction ([10]; at the various concentrations tested): 2 to 4 log

Molecule: C[C@]12C=CC(=O)C=C1CC[C@H]1[C@@H]3C[C@@H](O)[C@](O)(C(=O)CO)[C@@]3(C)C[C@H](O)[C@@]12F [Compound 72, triamcinolone]
- bitter identified: NO (patients) ([11]; Cases (n = 60), day 5): 7
- bitter identified: YES (patients) ([11]; Cases (n = 60), day 5): 53
- salt identified: NO (patients) ([11]; Cases (n = 60), day 5): 10
- salt identified: YES (patients) ([11]; Cases (n = 60), day 5): 50
- sour identified: NO (patients) ([11]; Cases (n = 60), day 5): 10
- sour identified: YES (patients) ([11]; Cases (n = 60), day 5): 50
- sweet identified: NO (patients) ([11]; Cases (n = 60), day 5): 5
- sweet identified: YES (patients) ([11]; Cases (n = 60), day 5): 55
- recovery of sense of smell taste ([11]; all anosmia and dysgeusia cases): recovered their sense of smell taste within a week
- improved for bitter ([11]; oral paste, fifth day): 83.33%
- improved for salty taste ([11]; oral paste, fifth day): 83.33%
- improved for sour taste ([11]; oral paste, fifth day): 83.34%
- improved for sweet ([11]; oral paste, fifth day): 91.67%

Molecule: COc1ccc2nc3cc(Cl)ccc3c(Nc3cc(CN4CCCC4)c(O)c(CN4CCCC4)c3)c2n1 [Reference Compound 4, pyronaridine]
- IC50 [2]: 1.08 µM
- Selectivity Index (SI) [2]: 34.22
- IC50 [3]: 6.41 µM
- Selectivity Index (SI) [3]: 6.718
- CC50 ([4]; Vero E6): 37.1 µM
- CC50 ([5]; Calu-3): 43.1 µM

Molecule: COc1cc([C@@H]2c3cc4c(cc3[C@@H](O[C@@H]3O[C@@H]5CO[C@@H](C)O[C@H]5[C@H](O)[C@H]3O)[C@H]3COC(=O)[C@H]23)OCO4)cc(OC)c1O [Compound 137, etoposide]
- PaO2/FiO2 ratio improved, average ([12]; 11 patients, 50-150 mg/m^2): 195%
- patients fully recovered and discharged home ([12]; of 11 patients): Nine
- patients needed mechanical ventilation ([12]; of 11 patients): Three
- patients died ([12]; of 11 patients, thrombotic complications): Two

Molecule: CC(C)c1nc(N(C)S(C)(=O)=O)nc(-c2ccc(F)cc2)c1/C=C/[C@@H](O)C[C@@H](O)CC(=O)O [Compound 64, rosuvastatin]
- mortality in patients infected with COVID-19 [13]: may reduce mortality

Molecule: saracatinib [Compound 112]
- Max % Inhibition of Viral Killing [14]: 22.48%
- OC43 viral replication [15]: inhibition also observed
- SARS-CoV-2 viral replication [16]: inhibition also observed

Molecule: Clc1ccc2c(c1)CCc1cccnc1C2=C1CCNCC1 [Compound 80, desloratadine]
- pseudotype entry (mean) [17]: 0.3

Molecule: NCCCCNCCCN [Reference Compound 2, spermidine]
- IC50 [8]: 149 µM
- Reducing Viral propagation [8]: 85%

Molecule: CCN(CC)CCCC(C)Nc1ccnc2cc(Cl)ccc12 (centres unmarked) [Reference Compound 1, chloroquine]
- IC50 ([18]; MOI 0.004): 42 µM
- IC50 ([18]; MOI 0.01): 46.8 µM
- IC50 [19]: 69.2 µM
- EC50 [20]: 1.36 µM
- EC50 [21]: 5 µM
- reduction of the viral titer [21]: 60%

Molecule: CC(C)c1c(C(=O)Nc2ccccc2)c(-c2ccccc2)c(-c2ccc(F)cc2)n1CC[C@@H](O)C[C@@H](O)CC(=O)O [Compound 8, atorvastatin]
- mortality in patients infected with COVID-19 [13]: may reduce mortality

Molecule: NCCOB(c1ccccc1)c1ccccc1 [compound 16]
- inhibition of SARS-CoV-2 replication [22]: significantly inhibit

Molecule: CS(=O)(=O)CCNCc1ccc(-c2ccc3ncnc(Nc4ccc(OCc5cccc(F)c5)c(Cl)c4)c3c2)o1 [Compound 187, lapatinib]
- Max % Inhibition of Viral Killing [14]: 63.99%
- OC43 viral replication [15]: strongly inhibited
- SARS-CoV-2 viral replication [16]: strongly inhibited
- toxicity ([16]; at doses readily achievable in human tissues, data not shown): without any toxicity
- inhibited SARS-CoV-2 replication ([16]; data not shown): over 50,000 fold

Molecule: COCCCC/C(=N\OCCN)c1ccc(C(F)(F)F)cc1 [Compound 34, fluvoxamine]
- incidence of subsequent hospitalization ([23]; 0 of 65, vs 12.5% with observation): 0%
- ongoing symptoms present at day 14 ([23]; 0 of 65, vs 60% with observation alone): 0%
- serious adverse events ([23]; 50 mg twice daily for 14 days): No serious adverse events
- Respiratory Rate ([23]; Day 1, N = 65): 17.7 ± 2.9
- Respiratory Rate ([23]; Day 7, N = 65): 12.9 ± 1.6
- Hospitalized within 14 days (patients) ([23]; N = 65): 0
- ICU care and/or Death (patients) ([23]; N = 65): 0
- Symptoms at Day 14: 1-3 (patients) ([23]; N = 65): 0
- Symptoms at Day 14: 4-6 (patients) ([23]; N = 65): 0
- Symptoms at Day 14: None (patients) ([23]; N = 65): 65
- Symptoms at Day 14: ≥7 (patients) ([23]; N = 65): 0
- adverse events leading to early discontinuation ([23]; human, in vivo): No adverse events led to early discontinuation
- serious adverse event (number) ([24]; fluvoxamine group, placebo 6): 1
- other adverse events (number) ([24]; fluvoxamine group, placebo 12): 11
- Absolute difference (95% CI), any nonzero value ([24]; fluvoxamine vs placebo): −8.3%
- Absolute difference (95% CI), clinical deterioration ([24]; fluvoxamine vs placebo): 8.7%
- Absolute difference (95% CI), clinical status 0 (none) ([24]; fluvoxamine vs placebo): 8.3%
- Absolute difference (95% CI), clinical status mean ([24]; fluvoxamine vs placebo): −0.22
- Clinical status on 7-point scale, mean (SD) ([24]; n = 80): 0
- Clinical status on 7-point scale: 0 (none), No. (%) ([24]; n = 80): 80 (100)
- Clinical status on 7-point scale: Any nonzero value, No. (%) ([24]; n = 80): 0
- Primary end point Clinical deterioration (met both criteria), No. (%) ([24]; n = 80, 100 mg 3 times daily for 15 days): 0

Molecule: CC(=O)OCOC(=O)CN(CC(=O)OCOC(C)=O)c1ccccc1OCCOc1ccccc1N(CC(=O)OCOC(C)=O)CC(=O)OCOC(C)=O [compound 15, BAPTA-AM]
- inhibition of SARS-CoV-2 replication [22]: significantly inhibit

Molecule: O=C1NCN(c2ccccc2)C12CCN(CCCC(c1ccc(F)cc1)c1ccc(F)cc1)CC2 [Compound 158, fluspirilene]
- Selectivity Index (SI) ([18]; MOI 0.004): 9.61
- IC50 ([18]; MOI 0.004): 6.36 µM
- Selectivity Index (SI) ([18]; MOI 0.01): >5.71
- IC50 ([18]; MOI 0.01): 5.32 µM
- CC50 ([25]; listed as MOI 0.004): 30.3 µM
- CC50 ([25]; listed as MOI 0.01): 30.3 µM

Molecule: maraviroc [Compound 170]
- decrease in viral load [9]: 30.7 fold
